What all share (type): biochemical
The target of one experiment is T1, LATS2 (Homo sapiens, UniProt Q9NRM7).
T1 sequence (Q9NRM7 1-1088): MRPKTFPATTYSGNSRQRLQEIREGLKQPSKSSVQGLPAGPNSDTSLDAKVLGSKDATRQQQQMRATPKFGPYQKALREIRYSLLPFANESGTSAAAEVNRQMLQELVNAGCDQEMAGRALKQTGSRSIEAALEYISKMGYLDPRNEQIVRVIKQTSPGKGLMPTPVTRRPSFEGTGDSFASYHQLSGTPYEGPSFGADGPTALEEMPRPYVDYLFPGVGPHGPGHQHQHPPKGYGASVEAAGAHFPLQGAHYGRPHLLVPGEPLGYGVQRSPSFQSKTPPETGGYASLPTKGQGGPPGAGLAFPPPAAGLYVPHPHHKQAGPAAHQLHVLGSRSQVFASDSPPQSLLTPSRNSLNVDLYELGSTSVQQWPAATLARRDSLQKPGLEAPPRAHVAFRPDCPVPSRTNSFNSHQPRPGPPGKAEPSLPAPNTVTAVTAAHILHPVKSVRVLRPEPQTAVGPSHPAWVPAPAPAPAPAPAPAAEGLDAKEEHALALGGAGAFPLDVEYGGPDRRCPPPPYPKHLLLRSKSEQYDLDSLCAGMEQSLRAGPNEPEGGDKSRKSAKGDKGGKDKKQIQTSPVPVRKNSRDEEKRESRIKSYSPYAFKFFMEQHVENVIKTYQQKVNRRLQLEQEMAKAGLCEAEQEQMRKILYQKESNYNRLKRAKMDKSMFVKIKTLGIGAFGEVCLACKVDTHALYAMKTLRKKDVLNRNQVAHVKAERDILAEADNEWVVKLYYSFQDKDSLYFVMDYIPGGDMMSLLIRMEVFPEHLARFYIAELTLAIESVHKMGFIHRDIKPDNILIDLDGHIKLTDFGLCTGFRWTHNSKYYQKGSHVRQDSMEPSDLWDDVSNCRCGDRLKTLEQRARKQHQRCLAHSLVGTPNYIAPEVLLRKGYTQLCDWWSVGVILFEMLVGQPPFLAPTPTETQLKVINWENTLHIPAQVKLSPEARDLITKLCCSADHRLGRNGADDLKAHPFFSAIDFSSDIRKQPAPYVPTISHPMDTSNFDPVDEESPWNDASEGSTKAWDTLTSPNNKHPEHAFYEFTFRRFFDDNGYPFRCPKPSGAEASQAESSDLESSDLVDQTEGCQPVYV
Put plainly: RBC HotSpot kinase assay (33P-ATP, P81 filter-binding), LATS2. Particulars: Table 28, biochemical kinase assay; read-out: LATS2 IC50. The procedure:
(§1) Biochemical kinase inhibitory data was obtained for various exemplary compounds prepared according to the above.
(§2) The reagents used are as follows: Base Reaction buffer; 20 mM Hepes (pH 7.5), 10 mM MgCl2, 1 mM EGTA, 0.01% Brij35, 0.02 mg/ml BSA, 0.1 mM Na3VO4, 2 mM DTT, […]. Required cofactors were added individually to each kinase reaction.
(§3) The reaction procedure was as follows: • 1) Substrates were prepared in freshly prepared Reaction Buffer. • 2) Any required cofactors were delivered to the substrate solution above. • 3) Kinase was delivered into the substrate solution and gently mixed. • 4) Compounds were delivered in 100% DMSO into the kinase reaction mixture by Acoustic technology (Echo550; nanoliter range), followed by incubation for 20 min at room temp. • 5) ^33P-ATP was delivered into the reaction mixture to initiate the reaction. • 6) The mixture was incubated for 2 hours at room temperature. • 7) Kinase activity was detected by P81 filter-binding method.
(§4) Using the above functional assay, the inhibitory activity of the compounds for LATS1/2 versus AKT was characterized. The assays were typically run in a 10-point curve, in singlet, to produce a titration curve from which an IC50 value was obtained.
(§5) The reagents used are as follows: Base Reaction buffer; 20 mM Hepes (pH 7.5), 10 mM MgCl2, 1 mM EGTA, 0.01% Brij35, 0.02 mg/ml BSA, 0.1 mM Na3VO4, 2 mM DTT, 1% DMSO. Required cofactors were added individually to each kinase reaction.
(§6) Biochemical kinase inhibitory data was obtained for various exemplary compounds prepared according to the above in accordance with the protocols described in Examples 4 and 8. All biological activities are IC50, in nM.

In another experiment the target is T2, LATS1 (Homo sapiens, UniProt O95835).
T2 sequence (O95835 1-1130): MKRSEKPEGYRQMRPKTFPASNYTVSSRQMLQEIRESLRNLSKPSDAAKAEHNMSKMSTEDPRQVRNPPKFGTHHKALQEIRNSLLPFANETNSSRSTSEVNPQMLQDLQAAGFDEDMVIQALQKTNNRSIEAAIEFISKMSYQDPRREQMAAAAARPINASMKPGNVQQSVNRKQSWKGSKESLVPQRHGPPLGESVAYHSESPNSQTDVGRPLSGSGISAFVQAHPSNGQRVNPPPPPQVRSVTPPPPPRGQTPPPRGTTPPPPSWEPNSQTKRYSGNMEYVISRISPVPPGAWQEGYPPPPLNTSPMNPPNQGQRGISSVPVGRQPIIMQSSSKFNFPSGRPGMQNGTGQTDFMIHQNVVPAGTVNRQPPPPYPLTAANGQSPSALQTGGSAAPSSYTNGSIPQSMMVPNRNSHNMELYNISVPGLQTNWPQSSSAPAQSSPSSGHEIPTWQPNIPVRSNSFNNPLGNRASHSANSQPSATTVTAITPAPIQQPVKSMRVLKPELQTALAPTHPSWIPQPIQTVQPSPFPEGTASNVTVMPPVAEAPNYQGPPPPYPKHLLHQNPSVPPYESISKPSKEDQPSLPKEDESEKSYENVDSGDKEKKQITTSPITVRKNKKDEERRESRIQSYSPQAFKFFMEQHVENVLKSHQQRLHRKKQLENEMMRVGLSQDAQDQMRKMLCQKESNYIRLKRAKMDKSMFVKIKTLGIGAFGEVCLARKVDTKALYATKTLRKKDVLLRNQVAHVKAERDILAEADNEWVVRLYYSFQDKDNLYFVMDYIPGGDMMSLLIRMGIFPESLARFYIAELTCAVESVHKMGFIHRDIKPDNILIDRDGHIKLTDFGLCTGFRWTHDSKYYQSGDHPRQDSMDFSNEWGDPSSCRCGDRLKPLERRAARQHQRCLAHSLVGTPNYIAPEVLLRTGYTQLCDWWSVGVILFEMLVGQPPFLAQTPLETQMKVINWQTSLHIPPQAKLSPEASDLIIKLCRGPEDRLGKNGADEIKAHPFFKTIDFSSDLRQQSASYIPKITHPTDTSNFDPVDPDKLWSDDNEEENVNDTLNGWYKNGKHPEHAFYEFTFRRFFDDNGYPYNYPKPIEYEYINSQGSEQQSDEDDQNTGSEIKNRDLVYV
As to the kind of experiment: RBC HotSpot kinase assay (33P-ATP, P81 filter-binding), LATS1. As to conditions: Table 28, biochemical kinase assay; read-out: LATS1 IC50. The method, then:
as §1, §2, §3, §4, §5, §6

The next experiment addresses AKT (Homo sapiens, UniProt P31749). Put plainly: RBC HotSpot kinase assay (33P-ATP, P81 filter-binding), AKT. As to conditions: Table 28, biochemical kinase assay; read-out: AKT IC50. The method, then:
as §1, §2, §3, §4, §5, §6

pIC50: −log10 of the molar value.

Sequence of AKT (P31749 whole entry): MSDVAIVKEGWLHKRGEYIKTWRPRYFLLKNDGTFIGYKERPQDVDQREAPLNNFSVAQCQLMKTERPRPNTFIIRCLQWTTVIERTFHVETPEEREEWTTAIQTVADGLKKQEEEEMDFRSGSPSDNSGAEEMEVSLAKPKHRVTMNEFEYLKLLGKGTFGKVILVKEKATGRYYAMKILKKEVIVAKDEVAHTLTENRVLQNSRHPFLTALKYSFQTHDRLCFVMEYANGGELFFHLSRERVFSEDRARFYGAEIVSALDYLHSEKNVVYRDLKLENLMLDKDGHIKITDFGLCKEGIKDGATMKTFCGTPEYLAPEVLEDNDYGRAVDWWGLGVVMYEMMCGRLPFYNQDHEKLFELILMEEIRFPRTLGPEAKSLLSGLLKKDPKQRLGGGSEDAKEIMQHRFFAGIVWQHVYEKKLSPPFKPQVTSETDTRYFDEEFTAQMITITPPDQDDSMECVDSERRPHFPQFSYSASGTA

As for `Cc1cc(-c2ccnc3[nH]cc(F)c23)ccc1[C@@]1(O)[C@H](C)CN(C2CCOCC2)C[C@@H]1C` [Compound 27, (3S,4s,5R)-4-(4-(3-fluoro-1H-pyrrolo[2,3-b]pyridin-4-yl)-2-methylphenyl)-3,5-dimethyl-1-(tetrahydro-2H-pyran-4-yl)piperidin-4-ol], the pIC50 – broadly, −log10 of the IC50, conventionally taken in molar units – on LATS2 is 8.66; on LATS1, 8.77; on AKT, 7.32.
`Cc1cc(-c2ccnc3[nH]cc(F)c23)cc(F)c1C1(O)[C@H](C)CN(C2CCOCC2)C[C@@H]1C` (stereo partly drawn) [Compound 33, (3S,5R)-4-(2-fluoro-4-(3-fluoro-1H-pyrrolo[2,3-b]pyridin-4-yl)-6-methylphenyl)-3,5-dimethyl-1-(tetrahydro-2H-pyran-4-yl)piperidin-4-ol]: the pIC50 on LATS2 was 8.72; at LATS1 it was 8.47; at AKT it was 6.32.
The matching figures for `Cc1cc(-c2ccnc3[nH]cc(F)c23)cc(F)c1C1(O)[C@H](C)CN(C2CCOC2)C[C@@H]1C` (stereo partly drawn) [Compound 34, (3S,5R)-4-(2-fluoro-4-(3-fluoro-1H-pyrrolo[2,3-b]pyridin-4-yl)-6-methylphenyl)-3,5-dimethyl-1-(tetrahydrofuran-3-yl)piperidin-4-ol]: 8.08, 7.84 and 6.04.
The corresponding values for `C[C@@H]1CN(C2CCS(=O)(=O)CC2)C[C@H](C)C1(O)c1cnc(-c2ccnc3[nH]cc(F)c23)cc1F` (stereo partly drawn) [Compound 35, 4-((3S,5R)-4-(4-fluoro-6-(3-fluoro-1H-pyrrolo[2,3-b]pyridin-4-yl)pyridin-3-yl)-4-hydroxy-3,5-dimethylpiperidin-1-yl)tetrahydro-2H-thiopyran 1,1-dioxide] are 7.20, 7.00 and 5.68.
The corresponding values for `C[C@@H]1CN(C2COC2)C[C@H](C)C1(O)c1cnc(-c2ccnc3[nH]cc(F)c23)cc1F` (stereo partly drawn) [Compound 36, (3S,5R)-4-(4-fluoro-6-(3-fluoro-1H-pyrrolo[2,3-b]pyridin-4-yl)pyridin-3-yl)-3,5-dimethyl-1-(oxetan-3-yl)piperidin-4-ol] are 7.10, 7.01 and less than 6.00.
Consider `C[C@@H]1CN(C)C[C@H](C)[C@@]1(O)c1c(F)cc(-c2ccnc3[nH]cc(F)c23)cc1F` [Compound 37, (3S,4s,5R)-4-(2,6-difluoro-4-(3-fluoro-1H-pyrrolo[2,3-b]pyridin-4-yl)phenyl)-1,3,5-trimethylpiperidin-4-ol], for which the pIC50 on LATS2 was 8.07; on LATS1, 8.00; at AKT it was 6.32.
As to `C[C@@H]1CN(C)C[C@H](C)[C@@]1(O)c1ccc(-c2ccnc3[nH]ccc23)cc1` [Compound 38, (3R,4s,5S)-4-(4-(1H-pyrrolo[2,3-b]pyridin-4-yl)phenyl)-1,3,5-trimethylpiperidin-4-ol], the figures for the negative-log IC50 (pIC50) at LATS2, at LATS1 and on AKT were 7.57, 7.55 and 6.74, respectively.
The corresponding values for `C[C@@H]1CN(C)C[C@H](C)[C@@]1(O)c1ccc(-c2ccnc3[nH]ccc23)nc1` [Compound 40, (3R,4s,5S)-4-(6-(1H-pyrrolo[2,3-b]pyridin-4-yl)pyridin-3-yl)-1,3,5-trimethylpiperidin-4-ol] are 6.53, 7.00 and 5.81.
Take `C[C@@H]1CN(C)C[C@H](C)[C@@]1(O)c1ccc(-c2ccnc3[nH]cc(F)c23)cc1F` [Compound 42, (3R,4s,5S)-4-(2-fluoro-4-(3-fluoro-1H-pyrrolo[2,3-b]pyridin-4-yl)phenyl)-1,3,5-trimethylpiperidin-4-ol]: the figures for the pIC50 at LATS2, on LATS1 and on AKT were 8.17, 8.01 and 6.80, respectively.
The corresponding values for `Cc1cc(-c2ccnc3[nH]cc(F)c23)ccc1[C@@]1(O)[C@H](C)CN(C)C[C@@H]1C` [Compound 43, (3R,4s,5S)-4-(4-(3-fluoro-1H-pyrrolo[2,3-b]pyridin-4-yl)-2-methylphenyl)-1,3,5-trimethylpiperidin-4-ol] are 8.54, 8.49 and 7.20.
`Cc1cc(-c2ccnc3[nH]cc(F)c23)ncc1[C@@]1(O)[C@H](C)CN(C)C[C@@H]1C` [Compound 44, (3R,4s,5S)-4-(6-(3-fluoro-1H-pyrrolo[2,3-b]pyridin-4-yl)-4-methylpyridin-3-yl)-1,3,5-trimethylpiperidin-4-ol]: the results for the pIC50 on LATS2, at LATS1 and on AKT were 7.71, 8.05 and 5.79, respectively.
The corresponding values for `CC(C)N1C[C@@H](C)[C@](O)(c2c(F)cc(-c3ccnc4[nH]cc(F)c34)cc2F)[C@@H](C)C1` [Compound 47, (3R,4s,5S)-4-(2,6-difluoro-4-(3-fluoro-1H-pyrrolo[2,3-b]pyridin-4-yl)phenyl)-1-isopropyl-3,5-dimethylpiperidin-4-ol] are 7.95, 8.33 and 6.35.
The matching figures for `Cc1cc(-c2ccnc3[nH]cc(F)c23)cc(Cl)c1[C@@]1(O)[C@H](C)CN(C2COC2)C[C@@H]1C` [Compound 49, (3R,4s,5S)-4-(2-chloro-4-(3-fluoro-1H-pyrrolo[2,3-b]pyridin-4-yl)-6-methylphenyl)-3,5-dimethyl-1-(oxetan-3-yl)piperidin-4-ol]: 6.37, 6.16 and 6.90.

(Values after patent US20250361230A1, “LATS Inhibitors and Uses Thereof” (The USA, as Represented by the Secretary, Dept. of Heath …, priority 2022, published 2025).)
